Results on seven compounds are retold here after US8410302B2, “Methoxyimino compounds and fungicide composition comprising same” (Kyung Nong Corporation, priority 2007, dated 2013).

In one assay the test system is Phytophthora infestans. The assay can be described thus: whole plant or invertebrate. The format is in vivo. The conditions noted are these: for pest or weed control at 50 ppm / pest or weed control at 100 ppm / pest or weed control at 10 ppm / pest or weed control at 2 ppm: Phytophthora infestans, in Solanum lycopersicum, read-out: TLB control value (C.V.); for TLB control value (C.V.): tomato late blight.

A further assay deals with Botrytis cinerae. The assay can be described thus: Fungicidal activity against cucumber gray mold rot (CGM) disease, control value. The class given is in vivo.
The subject of a further assay is Puccinia recondita. As to the kind of experiment: Fungicidal activity against wheat leaf rust (WLR) disease, control value. The class given is in vivo. The conditions noted are these: for pest or weed control at 2 ppm / pest or weed control at 10 ppm / pest or weed control at 50 ppm / pest or weed control at 100 ppm: read-out: WLR control value (C.V.).
In a further assay the test system is Rhizoctonia solani AG-1. The assay can be described thus: Fungicidal activity against rice sheath blight (RSB) disease, control value. The following applies: for pest or weed control at 2 ppm / pest or weed control at 10 ppm / pest or weed control at 50 ppm / pest or weed control at 100 ppm: Rhizoctonia solani, AG1, in Oryza sativa, read-out: RSB control value (C.V.).

In assay [1] the test system is Pyricularia oryzae Carvara KA301. As to the kind of experiment: whole plant or invertebrate. The class given is in vivo. The following applies: for pest or weed control at 2 ppm / pest or weed control at 10 ppm / pest or weed control at 50 ppm / pest or weed control at 100 ppm: Pyricularia oryzae, read-out: RCB control value (C.V.); for RCB control value (C.V.): rice blast.

The test system of the next assay is Erysiphae graminis. The assay can be described thus: Fungicidal activity against barley powdery mildew (BPM) disease, control value. The format is in vivo. The following applies: for pest or weed control at 2 ppm / pest or weed control at 10 ppm / pest or weed control at 50 ppm / pest or weed control at 100 ppm: 168 h, read-out: BPM control value (C.V.).
[2] abbreviates: Botrytis, 100 ppm, cucumber gray mold rot, read-out: CGM control value (C.V.).
Setting [3] is: Hordeum vulgare, 2 ppm, barley powdery mildew.
The mark [4] stands for this setting: Hordeum vulgare, 10 ppm, barley powdery mildew.
[5] abbreviates: Hordeum vulgare, 50 ppm, barley powdery mildew.
The mark [6] stands for this setting: Hordeum vulgare, 100 ppm, barley powdery mildew.
[7] abbreviates: Botrytis, 100 ppm, read-out: CGM control value (C.V.).

Where two headings read alike, the source gives them in different places.

As to `CNC(=O)/C(=N/OC)c1ccccc1COc1ccc(C=C(Cl)Cl)cc1C` [Example 42, (E)-2-(2-((4-(2,2-dichlorovinyl)-2-methylphenoxy)methyl)phenyl)-2-methoxyimino-N-methylacetamide], the pest or weed control at 50 ppm with Phytophthora infestans is 70%; in the assay on Puccinia recondita (50 ppm, wheat leaf rust) it was 100%; with Rhizoctonia solani AG-1 it was 100%; in assay [1], 100%; in the assay with Erysiphae graminis (setting [5]), 100%. Besides, the pest or weed control at 100 ppm in the assay on Phytophthora infestans amounted to 95%; in the assay on Botrytis cinerae (setting [2]) it was 0%; in the assay on Puccinia recondita (100 ppm, wheat leaf rust), 100%; with Rhizoctonia solani AG-1, 100%; in assay [1] it was 100%; in the assay with Erysiphae graminis (setting [6]) it was 100%. For the same compound, the pest or weed control at 2 ppm stood at 100% with Puccinia recondita (2 ppm, wheat leaf rust); 100% in the assay with Rhizoctonia solani AG-1; 100% in assay [1]; 100% in the assay on Erysiphae graminis (setting [3]). In addition, the pest or weed control at 10 ppm in the assay on Puccinia recondita (10 ppm, wheat leaf rust) was 100%; in the assay on Rhizoctonia solani AG-1, 100%; in assay [1], 100%; with Erysiphae graminis (setting [4]) it was 100%.

For `CNC(=O)/C(=N/OC)c1ccccc1COc1ccc(C)cc1C=C(Br)Br` [Example 70, (E)-2-(2-((2-(2,2-dibromovinyl)-4-methylphenoxy)methyl)phenyl)-2-methoxyimino-N-methylacetamide], the pest or weed control at 10 ppm with Phytophthora infestans is 35%; in the assay with Puccinia recondita (Puccinia recondita, 10 ppm) it was 100%; in the assay with Rhizoctonia solani AG-1 it was 100%; in assay [1], 100%; with Erysiphae graminis (10 ppm) it was 100%. The pest or weed control at 50 ppm in the assay on Phytophthora infestans is 90%; with Puccinia recondita (Puccinia recondita, 50 ppm), 100%; with Rhizoctonia solani AG-1 it was 100%; in assay [1], 100%; with Erysiphae graminis (50 ppm), 100%. The pest or weed control at 100 ppm in the assay with Phytophthora infestans stood at 100%; in the assay with Botrytis cinerae (setting [7]), 50%; in the assay on Puccinia recondita (Puccinia recondita, 100 ppm), 100%; in the assay on Rhizoctonia solani AG-1 it was 100%; in assay [1], 100%; in the assay on Erysiphae graminis (100 ppm), 100%. The pest or weed control at 2 ppm with Puccinia recondita (Puccinia recondita, 2 ppm) is 100%; in the assay on Rhizoctonia solani AG-1 it was 100%; in assay [1], 100%; in the assay on Erysiphae graminis (2 ppm), 100%.

As for `CNC(=O)/C(=N/OC)c1ccccc1COc1ccc(C=C(Br)Br)cc1` [Example 8, (E)-2-(2-((4-(2,2-dibromovinyl)phenoxy)methyl)phenyl)-2-methoxyimino-N-methylacetamide], the pest or weed control at 2 ppm in the assay on Phytophthora infestans was determined as 98%; in the assay with Puccinia recondita (2 ppm, wheat leaf rust), 90%; in assay [1], 90%; with Erysiphae graminis (setting [3]) it was 99%. In addition, the pest or weed control at 10 ppm in the assay with Phytophthora infestans was 100%; in the assay with Puccinia recondita (10 ppm, wheat leaf rust), 90%; in assay [1], 97%; with Erysiphae graminis (setting [4]) it was 100%. In addition, the pest or weed control at 50 ppm with Phytophthora infestans was 100%; in the assay on Puccinia recondita (50 ppm, wheat leaf rust), 98%; in assay [1], 100%; in the assay on Erysiphae graminis (setting [5]) it was 100%. Besides, the pest or weed control at 100 ppm in the assay on Phytophthora infestans was found to be 100%; in the assay on Botrytis cinerae (setting [2]), 7%; with Puccinia recondita (100 ppm, wheat leaf rust) it was 100%; in the assay with Rhizoctonia solani AG-1 it was 32%; in assay [1] it was 100%; with Erysiphae graminis (setting [6]) it was 100%.

Regarding `CNC(=O)/C(=N/OC)c1ccccc1COc1c(C)cccc1C=C(Cl)Cl` [Example 50, (E)-2-(2-((2-(2,2-dichlorovinyl)-6-methylphenoxy)methyl)phenyl)-2-methoxyimino-N-methylacetamide], the pest or weed control at 2 ppm with Phytophthora infestans was found to be 90%; in the assay with Puccinia recondita (2 ppm, wheat leaf rust) it was 100%; in the assay on Rhizoctonia solani AG-1, 95%; in assay [1] it was 85%; in the assay on Erysiphae graminis (setting [3]), 100%. In addition, the pest or weed control at 10 ppm in the assay with Phytophthora infestans was found to be 99%; in the assay on Puccinia recondita (10 ppm, wheat leaf rust), 100%; in the assay with Rhizoctonia solani AG-1, 98%; in assay [1], 98%; in the assay with Erysiphae graminis (setting [4]) it was 100%. For the same compound, the pest or weed control at 50 ppm with Phytophthora infestans turned out to be 100%; in the assay with Puccinia recondita (50 ppm, wheat leaf rust), 100%; in the assay with Rhizoctonia solani AG-1, 100%; in assay [1] it was 100%; with Erysiphae graminis (setting [5]), 100%. In addition, the pest or weed control at 100 ppm with Phytophthora infestans is 100%; in the assay on Botrytis cinerae (setting [2]), 20%; in the assay on Puccinia recondita (100 ppm, wheat leaf rust), 100%; in the assay with Rhizoctonia solani AG-1, 100%; in assay [1] it was 100%; in the assay with Erysiphae graminis (setting [6]) it was 100%.

Consider `CO/N=C(/C(=O)OC)c1ccccc1COc1ccc(C=C(Cl)Cl)c(Cl)c1` [Example 57, methyl-(E)-2-(2-((3-chloro-4-(2,2-dichlorovinyl)phenoxy)methyl)phenyl)-2-methoxyiminoacetate], for which the pest or weed control at 2 ppm with Phytophthora infestans turned out to be 99%; with Puccinia recondita (Puccinia recondita, 2 ppm), 95%; with Rhizoctonia solani AG-1, 90%; in assay [1] it was 90%; in the assay with Erysiphae graminis (2 ppm), 100%. Besides, the pest or weed control at 10 ppm was determined as 100% in the assay with Phytophthora infestans; 100% in the assay on Puccinia recondita (Puccinia recondita, 10 ppm); 100% with Rhizoctonia solani AG-1; 100% in assay [1]; 100% in the assay with Erysiphae graminis (10 ppm). Besides, the pest or weed control at 50 ppm was 100% with Phytophthora infestans; 20% in the assay on Botrytis cinerae (Botrytis, 50 ppm, read-out: CGM control value (C.V.)); 100% in the assay with Puccinia recondita (Puccinia recondita, 50 ppm); 100% in the assay with Rhizoctonia solani AG-1; 100% in assay [1]; 100% in the assay with Erysiphae graminis (50 ppm). Further, the pest or weed control at 100 ppm in the assay with Phytophthora infestans was found to be 100%; with Botrytis cinerae (setting [7]) it was 75%; in the assay on Puccinia recondita (Puccinia recondita, 100 ppm), 100%; in the assay on Rhizoctonia solani AG-1, 100%; in assay [1], 100%; in the assay with Erysiphae graminis (100 ppm), 100%.

In the case of `CO/N=C(/C(=O)OC)c1ccccc1COc1c(OC)ccc(C=C(Cl)Cl)c1Br` [Example 51, methyl-(E)-2-(2-((2-bromo-3-(2,2-dichlorovinyl)-6-methoxyphenoxy)methyl)phenyl)-2-methoxyiminoacetate], the pest or weed control at 2 ppm in the assay on Phytophthora infestans amounted to 90%; in the assay on Puccinia recondita (2 ppm, wheat leaf rust) it was 100%; with Rhizoctonia solani AG-1, 90%; in assay [1], 90%; in the assay on Erysiphae graminis (setting [3]), 100%. Also, the pest or weed control at 10 ppm in the assay with Phytophthora infestans worked out at 97%; in the assay with Puccinia recondita (10 ppm, wheat leaf rust), 100%; with Rhizoctonia solani AG-1 it was 98%; in assay [1], 100%; in the assay on Erysiphae graminis (setting [4]), 100%. Further, the pest or weed control at 50 ppm with Phytophthora infestans turned out to be 100%; in the assay on Puccinia recondita (50 ppm, wheat leaf rust), 100%; in the assay on Rhizoctonia solani AG-1 it was 100%; in assay [1], 100%; with Erysiphae graminis (setting [5]) it was 100%. The pest or weed control at 100 ppm was 100% in the assay on Phytophthora infestans; 75% in the assay on Botrytis cinerae (setting [2]); 100% in the assay on Puccinia recondita (100 ppm, wheat leaf rust); 100% in the assay with Rhizoctonia solani AG-1; 100% in assay [1]; 100% with Erysiphae graminis (setting [6]).

For the compound `CNC(=O)/C(=N/OC)c1ccccc1CON=C(C)c1ccc(C=C(Br)Br)cc1` [Example 26, (E)-2-[[[[[2-[4-(2,2-dibromovinyl)phenyl](1-methyl)methylidene]amino]oxy]methyl]phenyl]-2-methoxyimino-N-methylacetamide], the “TLB control value (C.V.)” value with Phytophthora infestans (2 ppm) was 98%; in the assay on Phytophthora infestans (10 ppm), 100%; in the assay with Phytophthora infestans (50 ppm) it was 100%; in the assay with Phytophthora infestans (100 ppm), 100%. Further, the “CGM control value (C.V.)” value in the assay on Botrytis cinerae (100 ppm, cucumber gray mold rot) is 7%. In addition, the “WLR control value (C.V.)” value in the assay on Puccinia recondita (2 ppm, wheat leaf rust) is 90%; with Puccinia recondita (10 ppm, wheat leaf rust) it was 90%; with Puccinia recondita (50 ppm, wheat leaf rust), 98%; with Puccinia recondita (100 ppm, wheat leaf rust), 100%. In addition, the “RSB control value (C.V.)” value with Rhizoctonia solani AG-1 (100 ppm, rice sheath blight) turned out to be 32%. The “RCB control value (C.V.)” value in assay [1] (2 ppm) came out at 90%; in assay [1] (10 ppm), 97%; in assay [1] (50 ppm), 100%; in assay [1] (100 ppm), 100%. Moreover, the “BPM control value (C.V.)” value is 99% in the assay with Erysiphae graminis (2 ppm, barley powdery mildew); 100% in the assay with Erysiphae graminis (10 ppm, barley powdery mildew); 100% in the assay on Erysiphae graminis (50 ppm, barley powdery mildew); 100% in the assay with Erysiphae graminis (100 ppm, barley powdery mildew).
